Square brackets hold non-standard residues; d marks the D form. Peptide text beside a SMILES is read from it. Orn = NCCC[C@H](N)C(=O)O
What was measured:
platelets = conditions: literature statement; cited from earlier work
[1] = system: cells that express high levels of Mcl-1; conditions: literature statement; cited from earlier work
[2] = Toxicity: serum ALP, AST, ALT, blood urea nitrogen and liver histology in arthritic mice; type: in vivo; conditions: liver sections of arthritic mice
Experimental: (§1) At each time point and prior to euthanasia, the degree of arthritis as indicated by joint swelling was quantitated by measuring two perpendicular diameters of the ankles using a caliper (Lange Caliper: Cambridge Scientific Industries, Cambridge Mass.). Joint circumference was calculated using the geometric formula of ellipse circumference (2πX √(a^2+b^2)/2). Following euthanasia, serum was isolated from peripheral blood by cardiac stick and ankle joints were removed. One of the ankle joints was fixed in 10% neutral buffered formalin for 24 hours, decalcified in EDTA-decalcification buffer for two weeks, embedded in paraffin, and sectioned. The other ankle joint was placed in liquid nitrogen, grounded into a fine powder by mortal and pestle, digested in protein lysis buffer ([…], 0.5% NP-40, 50 mM Tris, and 2 mM EDTA) in the presence of phosphatase and protease inhibitors, and homogenized on ice for 20 seconds. To examine any toxicity due to systemic delivery of TAT-Bim peptides, alkaline phosphatase (ALP), […] (AST), alanine aminotransferase (ALT), and blood urea nitrogen levels were measured.
(§2) Paraffin embedded ankle or liver sections were stained with hematoxylin and eosin (H&E), Safranin O and methyl green. Histopathological scoring was performed and ankle sections were evaluated by examining at least 3 sections/ankle and 3 fields/section at 400× magnification. H&E ankle sections were scored on a 0-5 scale for inflammation, with 0=normal, 1=minimal infiltration, 2=mild infiltration, 3=moderate infiltration, […], mad 5=severe infiltration. Bone erosion was scored on a 0-5 scale by viewing H&E ankle sections, with 0=no or normal bone resorption, 1=small areas of resorption, 2=more numerous areas of resorption, 3=obvious resorption, 4=full thickness defects in the bone without distortion of the profile, 5=full thickness defects in the bone with distortion of the profile. H&E ankle stained sections were scored on a 0-5 scale for pannus formation, with 0=no pannus formation, 1=minimal pannus formation, 2=mild pannus formation, 3=moderate pannus formation, 4=marked pannus formation, and 5=severe pannus formation. H&E and Safranin 0 and methyl green sections were scored on a 0-5 scale for cartilage damage, with 0=no damage, 1-2=superficial cartilage destruction, 3-4=cartilage destruction to middle zone, 5=cartilage destruction to tide mark. Polymorphonuclear (PMN) leukocyte infiltration: 0=no PMNs, 1=rare scattered PMNs, 2=more frequent scattered PMNs, 3=small clusters of PMNs, 4=larger clusters of PMNs, mad 5=sheets of PMNs (abscess). Histopathological scoring was conducted on an Olympus BX40 microscope (1000×). Photographs were taken on a Nikon microscope equipped with the Nikon digital camera DMX 1200.

[3] = system: K/B×N serum transfer-induced arthritis; experiment: Histopathological scoring of ankle sections (H&E, safranin O/methyl green); type: in vivo, mice; conditions: saline vs TAT-inactive BH3
Experimental: as §2
To accurately assess the degree of inflammation and destruction of cartilage and bone, ankle sections were examined using a histopathological scoring system on hematoxylin and eosin (H& E) or safranin O-methyl green stained ankle sections.

[4] = system: K/B×N serum transfer-induced arthritis; experiment: K/B×N serum transfer-induced arthritis, ankle circumference (joint swelling); type: in vivo, mice
From the text: The seven-week-old progeny from homozygous KRN TCR transgenic mice (C57BL/6 background) crossed with non-obese diabetes (NOD) mice (K/B×N) were euthanized, peripheral blood was isolated, and serum were collected and pooled. One hundred and fifty microliters of K/B×N serum were intraperitoneally injected on each flank of 6-week old wt mice.
as §1
Therefore, peptides to the BH3 domain of Bim were used that are fused to polycationic peptide derived from HIV-1 TAT. These peptides have shown to activate Bak and Bax, suppress Bcl-2 and Mcl-1, induce mitochondrial permeability, and release mitochondrial cytochrome c. Mice were intraperitoneally injected with K/B×N serum to induce the effector phase of inflammatory arthritis.

IL-1β, TNFα, MCP-1, KC = experiment: Circulating cytokine levels in serum; type: in vivo, mice; conditions: between saline, TAT-inactive BH3 and TAT-BH3 groups
Experimental: as §1
TAT-BH3 peptides treatment reduces the numbers of myeloid cells in arthritic joints. […] To this end, the numbers of polymorphonuclear cell and macrophages in saline and BH3 peptide arthritic mice were quantified. […]

peripheral blood cells = experiment: Peripheral blood cell counts (flow cytometry, hematology analyzer); type: in vivo, mice; conditions: peripheral blood, mean ± standard error
Experimental: Peripheral blood and bone marrow were isolated from mice following euthanasia. Total leukocyte numbers were determined using an automated hematology analyzer ABX Pentra 60 (Diamond Diagnostics, Inc, Holliston, Mass.). The red blood cells in peripheral blood were lysed and the remaining cells were fixed with BD FACS lysing solution (BD Biosciences, Pharmingen) following incubation with antibodies. Bone marrow cells were isolated by flushing Dulbecco's Modified Eagle Medium (DMEM) (Gibco, Grand Island, N.Y.) through the tibias and red blood cells were lysed with BD PharM Lyse (BD Biosciences, Pharmingen) prior to incubation with antibodies. Cells with incubated with Fc Block (BD Biosciences, Pharmingen) then stained with fluorochrome conjugated antibodies to CD45, CD11b, Gr-1, CD62L, Ly-6C, Ly-6G, CD31 (BD Biosciences, Pharmingen) or isotype control antibodies for 30 minutes. Cells were acquired on a BD LSRII (BD Biosciences, Pharmingen) using Diva Software at the Saint Louis University Core Flow Cytometry Facility. All analysis was performed using FlowJo software (Tree Star Inc.).
Peripheral blood was isolated by cardiac sticks. Cells were blocked for 10 minutes with Fc block and then stained with anti-CD45, anti-CD19, anti-CD3, anti-CD4, anti-CDS, anti-CD11b, anti-Gr-1, and anti-CD62L antibodies for 30 minutes. Platelets and RBCs were determined on an automated hematology analyzer ABX Pentra 60. Following incubation with antibodies red blood cells were lysed and cells were fixed with Becton Dickenson FACS lysing solution.

[5] = system: IL-1β, TNFα, MCP-1, KC, MMP-3; experiment: ELISA of pro-inflammatory molecules in ankle extracts; type: in vivo, mouse; set-up: IL-1β / TNFα / MCP-1 / KC / MMP-3: unit not given here; conditions: ankle joints, seven days post-serum transfer; mean ± standard error
Experimental: as §1
For detection of mouse IL-1β, TNFα, MCP-1, KC, or MMP-3 in ankle extracts, sandwich ELISAs were performed according to the manufacturer's instructions (R & D Systems, Minneapolis, Minn.). The sensitivity for all cytokines was 15.6 pg/mL for IL-1β and KC, 7.813 pg/mL for TNFα and MCP-1, and 0.312 ng/mL for MMP3. ELISAs were quantitated by absorbance at 450 nm on a microplate reader (BioRad, Hercules, Calif.). Data obtained using ELISA on ankle extracts were normalized by the total protein concentration (μg/μL) for each individual ankle extract.
Mice were euthanized at seven days post-serum transfer. Ankle joints from each mouse were isolated, snap frozen, grounded into a fine powder, lysed, and examined for IL-1β, TNFα, MCP-1, KC, and MMP-3 production using an ELISA. Data are shown as μg/μL per joint. Values represent the mean±standard error, which were compared by Student's t-test.

## CN(C)CC[C@H](CSc1ccccc1)Nc1ccc(S(=O)(=O)NC(=O)c2ccc(N3CCN(Cc4ccccc4-c4ccc(Cl)cc4)CC3)cc2)cc1[N+](=O)[O-] [ABT-737]
platelets
  effect on platelet numbers: dramatic effect
[1]
  effect on cells that express high levels of Mcl-1: no effect

## CC[C@H](C)[C@H](NC(=O)[C@H](CCCNC(=N)N)NC(=O)[C@H](CCCNC(=N)N)NC(=O)[C@H](C)NC(=O)[C@H](CCC(=O)O)NC(=O)[C@H](CCC(N)=O)NC(=O)[C@H](C)NC(=O)[C@@H](NC(=O)[C@H](Cc1c[nH]c2ccccc12)NC(=O)[C@@H](NC(=O)[C@H](CCC(=O)O)NC(=O)[C@H](CCCNC(=N)N)NC(=O)[C@H](CCCNC(=N)N)NC(=O)[C@H](CCCNC(=N)N)NC(=O)[C@H](CCCN)NC(=O)[C@H](CCCNC(=N)N)NC(=O)[C@H](CCCNC(=N)N)NC(=O)[C@H](CCCCN)NC(=O)[C@H](CCCCN)NC(=O)[C@H](CCCNC(=N)N)NC(C)=O)[C@@H](C)CC)[C@@H](C)CC)C(=O)NCC(=O)N[C@@H](C)C(=O)N[C@@H](CCC(=O)O)C(=O)N[C@@H](Cc1ccccc1)C(=O)N[C@@H](CC(N)=O)C(=O)N[C@@H](C)C(=O)N[C@@H](Cc1ccc(O)cc1)C(=O)N[C@@H](Cc1ccc(O)cc1)C(=O)N[C@@H](C)C(=O)N[C@@H](CCCNC(=N)N)C(=O)O [reference compound] (Ac-RKKRR[Orn]RRREIWIAQEARRIGAEFNAYYAR-OH)
[2]
  liver histology: no gross histologic abnormalities
[3]
  difference in histological scores versus saline: no statistical difference
[4]; day 2 after K/B×N serum, 2 mg/kg i.p.
  change in ankle circumference: 1.6 mm
[4]; saline vs TAT-inactive BH3
  difference in arthritis (ankle circumference) versus saline: no statistical difference
IL-1β, TNFα, MCP-1, KC
  circulating levels of IL-1β, TNFα, MCP-1, and KC in serum: no differences
Peripheral blood cells; hematology analyzer
  Platelets: 1305.75 ± 70.03 (1E6)
  RBCs: 9.84 ± 0.22 (1E6)
Peripheral blood cells
  B-cells+: 2.38 ± 0.21 (1E6)
  CD4+ T-cells: 1.15 ± 0.10 (1E6)
  CD8+ T-cells: 0.72 ± 0.06 (1E6)
  Inflammatory monocytes: 0.25 ± 0.03 (1E6)
  N-K-cells: 0.19 ± 0.13 (1E6)
  Resident Monocytes: 0.14 ± 0.01 (1E6)
  T-cells: 1.94 ± 0.17 (1E6)
  Total Leukocytes: 6.1 ± 0.18 (1E6)
[5]
  IL-1β: 824 ± 103
  KC: 428 ± 45
  MCP-1: 196 ± 17
  MMP-3: 17 ± 4
  TNFα: 4.4 ± 0.3

Source: patent US8785388B2, “TAT-BH3 methods for treating arthritis” (Saint Louis University, priority 2007, dated 2014)
